Reference: patent US4122204A, “N-(4-tert-butylphenylthiosulfenyl)-N-alkyl aryl carbamate compounds” (priority 1976, dated 1978)
Values after ≈ are worked out from the molar mass of the structure shown. Read-outs that look alike come from different tables or passages of the source.

Legend:
in vivo = conditions: rat, in vivo, po
Protocol: (§1) These compounds were also evaluated to determine their peroral toxicity to mammals by conventional methods. The animal selected for this experiment was the rat.
(§2) The toxicity is reported in […] required for a 50% kill (LD50).

rat = experiment: in vivo; conditions: for mammalian toxicity (in words): rat, in vivo
Protocol: as §1, §2

[1] = tested on: Mexican bean beetle (Epilachna varivestis, Muls.); experiment: Mexican Bean Beetle Leaf Spray Test; format: in vivo; conditions: for LC50: Epilachna varivestis, 72 h, read-out: Mexican Bean Beetle LD50
Protocol: (§3) Suspensions of the test compounds were prepared by dissolving one gram of compound in 50 milliliters of acetone in which had been dissolved 0.1 gram (10 percent of the weight of compound) of an alkylphenoxy polyethoxyethanol surfactant, as an emulsifying or dispersing agent. The resulting solution was mixed into 150 milliliters of water to give roughly 200 milliliters of a suspension containing the compound in finely divided form. The thus-prepared stock suspension contained 0.5 percent by weight of test compound. The test concentration in parts per million by weight employed in the tests described hereinbelow were obtained by appropriate dilutions of the stock suspension with water. The test procedures were as follows:
Fourth instar larvae of the Mexican bean beetle (Epilachna varivestis, Muls.), reared on Tendergreen bean plants at a temperature of 80°±5° F. and 50±5 percent relative humidity, were the test insects.
The test compounds were formulated by diluting the stock suspension with water to give a suspension containing 500 parts of test compound per million parts of final formulation. Potted Tendergreen bean plants of standard height and age were placed on a revolving turntable and sprayed with 100-110 milliliters of test compound formulation by use of a DeVilbiss spray gun set at 10 psig air pressure. This application, which lasted 25 seconds, was sufficient to wet plants to run-off. As a control, 100-110 milliliters of a water-acetone-emulsifier solution containing no test compound were also sprayed on infested plants. When dry, the paired leaves were separated and each was placed in a 9 centimeter Petri dish lined with moistened filter paper. Five randomly selected larvae were introduced into each dish, and the dishes were closed. The closed dishes were labeled and held at a temperature of 80°±5° F. for three days. Although the larvae could easily consume the leaf within 24 to 48 hours, no more food was added. Larvae which were unable to move the length of the body, even upon stimulation, were considered dead.

[2] = tested on: two-spotted mite (Tetranychus urticae Koch); experiment: Mite Foliage Spray Test; format: in vivo; conditions: foliar, 144 h, read-out: Mite LD50
Protocol: as §3
Adults and numphal stages of the two-spotted mite (Tetranychus urticae Koch), reared on Tendergreen bean plants at 80±5 percent relative humidity, were the test organisms. Infested leaves from a stock culture were placed on the primary leaves of two bean plants six to eight inches in height, growing in a two-and-a-half inch clay pot. 150-200 Mites, a sufficient number for testing, transferred from the excised leaves to the fresh plants in a period of twenty four hours. Following the twenty four hour transfer period, the excised leaves were removed from the infested plants. The test compounds were formulated by diluting the stock suspension with water to give a suspension containing 500 parts of test compound per million parts of final formulation. The potted plants (one pot per compound) were placed on a revolving turntable and sprayed with 100-110 milliliters of test compound formulation by use of a DeVilbiss spray gun set at 40 psig. air pressure. This application, which lasted 25 seconds, was sufficient to wet the plants to run-off. As a control, 100-110 milliliters of a water solution containing acetone and emulsifier in the same concentrations as the test compound formulation, but containing no test compound, were also sprayed on infested plants. The sprayed plants were held at 80±5 percent relative humidity for six days, after which a mortality countr of motile forms was made. Microscopic examination for motile forms was made on the leaves of the test plants. Any individual which was capable of locomotion upon prodding was considered living.

[3] = tested on: southern armyworm (Prodenia eridania, (Cram.)); experiment: Southern Armyworm Leaf Spray Test; format: in vivo; conditions: for LC50: Spodoptera eridania, 72 h, read-out: Southern Armyworm LD50
Protocol: as §3
Larvae of the southern armyworm (Prodenia eridania, (Cram.)), reared on Tendergreen bean plants at a temperature of 80°±5° F. and a relative humidity of 50±5 percent, constituted the test insects.
The test compounds were formulated by diluting the stock suspension with water to give a suspension containing 500 parts of test compound per million parts of final formulation. Potted Tendergreen bean plants of standard height and age were placed on a revolving turntable and sprayed with 100-110 milliliters of test compound formulation by use of a DeVilbiss spray gun set at 10 psig air pressure. This application, which lasted 25 seconds, was sufficient to wet plants to run-off. As a control, 100-110 milliliters of a water-acetone-emulsifier solution containing no test compound were also sprayed on infested plants. When dry, the paired leaves were separated and each one was placed in a 9 centimeter Petri dish lined with moistened filter paper. Five randomly selected larvae were introduced into each dish and the dishes were closed. The closed dishes were labeled and held at 80-85° F. for three days. Although the larvae could easily consume the whole leaf within twenty-four hours, no more food was added. Larvae which were unable to move the length of the body, even upon stimulation by prodding, were considered dead. Percent mortality was recorded for various concentration levels.

[4] = tested on: house flies (Musca domestica, L.); experiment: Fly Bait Test; format: in vivo; conditions: 24 h, read-out: House Fly LD50
Protocol: as §3
Four to six day old adult house flies (Musca domestica, L.), reared according to the specifications of the Chemical Specialities Manufacturing Association (Blue Book, McNair-Dorland Co., N.Y. 1954; pages 243-244, 261) under controlled conditions of 80°±5° F. and 50±5 percent relative humidity, were the test insects. The flies were immobilized by anesthetizing with carbon dioxide and twenty five immobilized individuals, males and females, were transferred to a cage consisting of a standard food strainer about five inches in diameter which was inverted over a wrapping-papercovered surface. The test compounds were formulated by diluting the stock suspension with a 10 percent (by weight) sugar solution to give a suspension containing 500 parts of test compound per million parts of final formulation, by weight. Ten milliliters of the test formulation were added to a souffle cup containing a one-inch square of an absorbent cotton pad. This bait cup was introduced and centered on the blotting paper under the food strainer prior to admitting the anesthetized flies. The caged flies were allowed to feed on the bait for twenty four hours, at a temperature of 80°±5° F. and the relative humidity of 50±5 percent.

[5] = tested on: bean aphid (Aphis fabae Scop.); experiment: Bean Aphid Foliage Spray Test; format: in vivo; conditions: for LC50: Aphis fabae, foliar, read-out: Aphid LD50
Protocol: as §3
Adults and nymphal stages of the bean aphid (Aphis fabae Scop.) reared on potted dwarf nasturtium plants at 65°-70° F. and 50-70 percent relative humidity, constituted the test insects. For testing purposes, the number of aphids per pot was standardized to 100-150 by trimming plants containing excess aphids.
The test compounds were formulated by diluting the stock suspension with water to give a suspension containing 500 parts of test compound per million parts of final formulation.
The potted plants (one pot per compound tested) infested with 100-150 aphids, were placed on a revolving turntable and sprayed with 100-110 milliliters of test compound formulation by use of a DeVilbiss spray gun set at 40 psig. air pressure. This application, which lasted 25 seconds, was sufficient to wet the plants to run-off. As a control, 100-110 milliliters of a water-acetone-emulsifier solution containing no test compound were also sprayed on infested plants. After spraying, the pots were placed on their sides on a sheet of white standard mimeograph paper which had been previously ruled to facilitate counting. Temperature and humidity in the test room during the 24 hour holding period were 65°-70° F. and 50-70 percent, respectively. Aphids which fell onto the paper and were unable to remain standing after being uprighted were considered dead. Aphids remaining on the plants were observed closely for movement and those which were unable to move the length of the body upon stimulation by prodding were considered dead. Percent mortality was recorded for various concentration levels.

important economic crops = experiment: Phytotoxicity against important economic crops
mites and insects = experiment: Pesticidal activity against mites and insects (general statement); conditions: in vivo
Protocol: Selected species of the new compounds were evaluated in comparison with known similar prior art compounds to determine their pesticidal activity against mites and certain insects, including an aphid, a caterpillar, a beetle and a fly. The new compounds were further evaluated for mammalian toxicity.

[6] = LD50 value (mammalian toxicity), peroral, unit inferred
[7] = Rat LD50, peroral, dose for mortality rate of 50 percent
[8] = leaf spray, ppm required for 50% kill, three days
[9] = foliage spray, ppm required for 50% kill, six days
[10] = bait test, ppm required for 50% kill, twenty four hours
[11] = foliage spray, ppm required for 50% kill, 24 hour holding period

| Compound | LD50 (in vivo; [6]) [mg/kg] | LD50 (in vivo; [7]) [mg/kg] | mammalian toxicity (in words) (rat) | LC50 [1, 8] [µg/mL] | LC50 [2, 9] [µg/mL] | LC50 [3, 8] [µg/mL] | LC50 [4, 10] [µg/mL] | LC50 [5, 11] [µg/mL] | LC50 [1] [µg/mL] | LC50 [2] [µg/mL] | LC50 [3] [µg/mL] | LC50 [4] [µg/mL] | phytotoxicity (in words) (important economic crops) | LC50 ([5]; 24 h) [µg/mL] | pesticidal activity against mites and insects (in words) (mites and insects) | times less toxic to mammals than parent compound (compound 1) (rat; rat LD50 ratio vs compound 1) | times less toxic to mammals than 4-methylphenylthiosulfenyl derivative (compound 2) (rat; rat LD50 ratio vs compound 2) | insecticidal activity against bean beetle (in words) ([1]; in vivo) | insecticidal activity against south armyworm (in words) ([3]; in vivo) | insecticidal activity against aphid (in words) ([5]; in vivo) |
| --- | --- | --- | --- | --- | --- | --- | --- | --- | --- | --- | --- | --- | --- | --- | --- | --- | --- | --- | --- | --- |
| CNC(=O)Oc1cccc2c1OC(C)(C)C2 [Compound 1, 2,2-Dimethyl-2,3-dihydro-7-(N-methylcarbamoyloxy)benzofuran] | 8 to 14 | 8 to 14 | unacceptable levels of mammaliam toxicity | 12 (≈ 54.2 µM) | 175 (≈ 791 µM) | 90 (≈ 407 µM) | 12 (≈ 54.2 µM) | 2 (≈ 9.04 µM) |  |  |  |  |  |  |  |  |  |  |  |  |
| CC(C)Oc1ccccc1OC(=O)N(C)SSc1ccc(C(C)(C)C)cc1 [Compound 4, 2-Isopropoxy-[N-methyl-N-(4-tert-butylphenylthiosulfenyl)carbamoyloxy]benzene] | > 640 | 640 | very low level of mammalian toxicity |  |  |  |  |  | 11 (≈ 27.1 µM) | > 500 | 250 (≈ 616 µM) | 110 (≈ 271 µM) | extremely low phytotoxicity | 22 (≈ 54.2 µM) |  |  |  |  |  |  |
| Cc1ccc(SSN(C)C(=O)Oc2cccc3c2OC(C)(C)C3)cc1 [Compound 2, 2,2-Dimethyl-2,3-dihydro-7-[N-methyl-N-(4-methylphenyl-thiosulfenyl)carbamoyloxy]benzofuran] | 20 | 20 |  |  |  |  |  |  | 4 (≈ 10.7 µM) | 130 (≈ 346 µM) | ~25 (≈ 66.6 µM) | 21 (≈ 55.9 µM) |  | 1.4 (≈ 3.73 µM) | levels generally comparable to those of the parent compounds |  |  |  |  |  |
| CNC(=O)Oc1ccccc1OC(C)C [Compound 5, 2-Isopropoxy-(N-methyl-carbamoyloxy)benzene] | 95 to 104 | 95 to 104 |  | 12 (≈ 57.3 µM) | > 500 | 500 (≈ 2390 µM) | 16 (≈ 76.5 µM) | 16 (≈ 76.5 µM) |  |  |  |  |  |  |  |  |  |  |  |  |
| CN(SSc1ccc(C(C)(C)C)cc1)C(=O)Oc1cccc2c1OC(C)(C)C2 [Compound 3, 2,2-Dimethyl-2,3-dihydro-7-[N-methyl-N-(4-tert-butylphenylthiosulfenyl)carbamoyloxy] benzofuran] | 453 | 453 | extremely low mammalian toxicity |  |  |  |  |  | 5 (≈ 12 µM) | > 500 | 40 (≈ 95.8 µM) | < 17 | low phytotoxicity | 3 (≈ 7.18 µM) |  | at least 38 times | at least 23 times | exceptionally high level of insecticidal activity | exceptionally high level of insecticidal activity | exceptionally high level of insecticidal activity |
